The subject of one data set is osteoporotic fracture. The experiment in a line: osteoporotic fracture repair in ovariectomised mice, callus mineralization by microCT. Type of data set: in vivo, mouse. The note with it: for percentage callus mineralization / fracture healing: day 14, 20 μL rhTNF-α 50 ng/ml immediately post fracture and 1 day later, vs PBS. As to the method: FIG. 6. Addition of exogenous TNF-α accelerates osteoporotic fracture repair in vivo. 20 μL of rhTNF-α at 50 ng/ml was injected at the fracture site immediately post fracture and 1 day later. Osteoporosis was induced by ovariectomising mice 4 weeks prior to surgery. (A). At day 14, mice were harvested and limbs scanned by microCT in a blinded fashion. […] At day 28 post fracture the percentage mineralised callus volume in the three groups (normal, those that had undergone oophorectomy and oophrectomised animals treated with TNF-α) were similar. […] (B).
We have investigated the effect of adding recombinant human TNF-α at the fracture site in mice rendered osteoporotic by oophorectomy 4 weeks previously.

The subject of data set [1] is human muscle-derived stromal cells. Particulars: cited from earlier work.
Data set [2] has as its system tibial fracture. The experiment in a line: murine tibial fracture model: callus mineralization (microCT) and histology after local administration at fracture site. Type of data set: in vivo, mouse.
Data set [3] concerns tibial fracture. Described as above. Type of data set: in vivo, mouse. Particulars: for fracture healing / callus mineralization: local, approx. 1 ng or 50 ng/kg (50 ng/ml, 20 microlitres PBS) at time of fracture and 24 hr later, day 28; for fracture healing / percentage callus mineralization: exogenous alarmin at fracture site days 0 and 1 (rmHMGB1 20 μL at 50 ng/ml), day 28 microCT. As to the method:
Percentage callus mineralization was determined from the fracture site to 1 mm proximally (mean+/−SEM). FIG. 5. Dose response of exogenous TNF-α in vivo. 20 μL of PBS with rhTNF-α at the corresponding dose was injected at the fracture site at days 0 and 1 in C57BI/6 mice. At day 28, mice were harvested and limbs scanned by microCT in a blinded fashion. Percentage callus mineralization was determined from the fracture site to 1 mm proximally (threshold density of 350 mg/cm^3). * p<0.05, ** p<0.01. FIG. 7A. […] Percentage callus mineralization was determined from the fracture site to 1 mm proximally (mean+/−SEM). FIG. 18. […] C57BI6 mice were subjected to fracture model with addition of 20 μL of rmHMGB1 at 50 ng/ml at the fracture site at days 0 and 1 compared to controls. Addition of exogenous S100A8 or S100A9 or S100A8/9 had no effect, possibly because the fracture environment may already contain optimal amounts of S100 A8 or A9 proteins. All mice were harvested at day 28 and limbs scanned by microCT in a blinded fashion. Percentage callus mineralization was determined from the fracture site to 1 mm proximally (mean+/−SEM). […] Inflammation plays a vital role in early fracture repair^11,12. In murine models, TNF-α, IL-1 and IL-6 are expressed at the fracture site within 24 hours of injury^13,14. Biphasic expression of TNF-α and IL-1β appears to be linked to the initiation of fracture repair and later to endochondral maturation^14,15. In our murine model, callus mineralization at day 28 was enhanced when TNF-α, at a concentration of 50 ng/kg was injected locally following injury (day 0) and 24 hours later.

The conditions of data set [4]: human, in vivo, cited from earlier work.
Data set [5] deals with intramuscular bone-inducing implant. The note with it: daily intra-peritoneal administration; cited from earlier work.
For a further data set, the system named is rib fracture. The note with it: cited from earlier work.
A further data set deals with bone marrow cells. The experiment in a line: TNF-α production by bone marrow cells from wild type, TLR-4 and MyD88 knockout mice. Type of data set: cell-based, mouse. Particulars: WT, TLR-4 and MyD88 knockout bone marrow cells. An excerpt: FIG. 11. TNF-α production by bone marrow cells from wild type (WT), TLR-4 and MyD88 knockout mice treated with murine S100A8.
The next data set deals with PBMCs. The experiment in a line: TNF-α production by PBMCs (ELISA, 14 hours). The data set is classed as cell-based, human. The note with it: for TNF-α production by PBMCs: PBMCs 1*10^5/ml, 10% FCS, alarmin at indicated doses. As to the method:
FIG. 10. […] (A) PBMCs at 1*10^5/ml were incubated in 10% fetal calf serum (FCS) with S100 A8 at indicated doses. […] (B) PBMCs at 1*10^5/ml were incubated in 10% FCS with S100 A8 at 0.5 μg/ml with the addition of either antibody to TLR4, TLR2 or isotype controls (not shown), or sRAGE over 14 hours. TNF-α levels were determined by ELISA.
FIG. 12. […] PBMCs at 1*10^5/ml were incubated in 10% FCS with S100 A8, S100 A9 or S100 A12 at the indicated doses over 14 hours. TNF-α levels were determined by ELISA.
FIG. 17. […] PBMCs at 1*10^5/ml were incubated in 10% FCS with HMGB1 or LPS at the indicated doses over 14 hours; TNF-α levels were determined by ELISA.

Positions count from the first letter of the chain named. Entries after “also recorded” stand apart in the source; their conditions may differ. Like-named read-outs stand apart in the source and are kept apart here.

On to TNF-α, for which the “percentage callus mineralization / fracture healing” value is recorded as “significantly greater” in the data set on osteoporotic fracture and “significantly accelerated fracture healing” with osteoporotic fracture (listed as recombinant human TNF-α). In the data set with osteoporotic fracture (day 28 post fracture, normal vs oophorectomy vs oophorectomy + TNF-α), the “percentage mineralised callus volume” value is reported as “similar”. Further, the “3D reconstructions of fracture site” value in the data set with osteoporotic fracture (rhTNF-α group vs PBS control) is “bridging of the fracture site with callus and ossification of the cartilaginous intermediary as well as remodelling of the ossified callus”. Also, the “effect at 10 fold increase beyond optimal range” value in data set [1] (10 ng/ml) is on record as “significant diminution in effect”. Moreover, the “migration and osteogenic differentiation of MDSC” value in [1] was “can migrate and differentiate upon stimulation; also recorded: clear concentration dependency; also recorded: accelerates bone formation within a narrow therapeutic window and is inhibitory at high concentrations”. Also, in [1], the “optimal in vitro dose” value was 0.1 to 1 ng/mL. Besides, the “histology of tibial fracture” value with tibial fracture [2] (14 days post injury, local TNF-α 50 ng/kg body weight (1 ng/ml) in PBS) was “complete bridging of the fracture site by hard callus (bone) and remodelling of the fracture callus”. Further, the results for the “callus mineralization at day 28” value with tibial fracture [3] ("high" dose of 5-100 μg/kg) and with tibial fracture [3] ("low" dose of 50 pg/kg) were “significantly less callus mineralization” and “indistinguishable from the PBS only control”, respectively. In addition, the “fracture healing compared to PBS control” value in the data set with tibial fracture [3] (doses of 10 pg to 1 ng at fracture site (FIG. 5)) was “significantly accelerated healing”. For the same molecule, the “fracture healing / callus mineralization” value was “effective in promoting bone formation and accelerating fracture healing; also recorded: enhanced; also recorded: significantly accelerated healing of the fracture” in the data set on tibial fracture [3]; “accelerate callus mineralization” in the data set on tibial fracture [3] (listed as rhTNF-α). For the same molecule, the “adverse effect, highest doses administered repeatedly” value is recorded as “minor local reactions” in data set [4] (sc) and “clinically insignificant thrombocytopaenia” in data set [4]. Further, the “single doses found safe” value in data set [4] was “up to 400 micrograms”. Besides, in [5], the “bone formation around implant” value is recorded as “inhibited bone formation”. The values for the fracture healing result in the data set with rib fracture (40 μg/kg/day) and in the data set with rib fracture (daily intra-peritoneal 400 μg/kg) were “(non significant) improvement in fracture healing” and “impaired healing”, respectively.
Consider “IL-1β: pro-inflammatory cytokine with some osteogenic activity in vitro”, for which the “bone nodule formation in vitro” value in data set [1] (cytokine alone, human specimens) was “does not promote bone nodule formation”. The alkaline phosphatase production result in [1] (human muscle-derived stromal cells) is recorded as “increased alkaline phosphatase production”.

B1: murine S100A8: murine alarmin S100A8 used on mouse bone marrow cells (protein, UniProt P27005 2-89, looked up)
Protein S100-A8: PSELEKALSNLIDVYHNYSNIQGNHHALYKNDFKKMVTTECPQFVQNINIENLFRELDINSDNAINFEEFLAMVIKVGVASHKDSHKE
As for B1, the “receptor dependence of TNF-α production” value in the data set on bone marrow cells was “largely dependent on TLR-4 receptor and absolutely dependent on MyD88”.

B2: S100A9: alarmin (protein, UniProt P06702 1-114, looked up)
Protein S100-A9: MTCKMSQLERNIETIINTFHQYSVKLGHPDTLNQGEFKELVRKDLQNFLKKENKNEKVIEHIMEDLDTNADKQLSFEEFIMLMARLTWASHEKMHEGDEGPGHHHKPGLGEGTP
Take B2: the “fracture healing / percentage callus mineralization” value with tibial fracture [3] is “no effect”. The “TNF-α production by PBMCs” value in the data set with PBMCs was “much lower effect than S100A8”; in the data set with PBMCs (listed as S100 A9), “much less potent than S100 A8”.

B3: S100A8/9: alarmin (protein, UniProt P05109 1-93; P06702 1-114, looked up)
Protein S100-A8: MLTELEKALNSIIDVYHKYSLIKGNFHAVYRDDLKKLLETECPQYIRKKGADVWFKELDINTDGAVNFQEFLILVIKMGVAAHKKSHEESHKE
Protein S100-A9: B2 Protein S100-A9
With B3, the “fracture healing / percentage callus mineralization” value with tibial fracture [3] is on record as “no effect”. For the same molecule, in the data set on PBMCs, the “TNF-α production by PBMCs” value is reported as “no activity”.

B4: HMGB1: alarmin; highly purified HMGB-1 (protein, UniProt P09429 1-215, looked up)
High mobility group protein B1: MGKGDPKKPRGKMSSYAFFVQTCREEHKKKHPDASVNFSEFSKKCSERWKTMSAKEKGKFEDMAKADKARYEREMKTYIPPKGETKKKFKDPNAPKRPPSAFFLFCSEYRPKIKGEHPGLSIGDVAKKLGEMWNNTAADDKQPYEKKAAKLKEKYEKDIAAYRAKGKPDAAKKGVVKAEKSKKKKEEEEDEEDEEDEEEEEDEEDEDEEEDDDDE
Take B4: the fracture healing result with tibial fracture [3] (1 mg/ml at fracture site at days 0 and 1, 28 days post fracture) is “significantly (p=0.02) accelerated healing”. In addition, the “fracture healing / percentage callus mineralization” value with tibial fracture [3] was “accelerated healing; also recorded: accelerates fracture healing”. In the data set with PBMCs (HMGB1 and LPS at indicated doses), the “TNF-α production by PBMCs, HMGB1 with addition of LPS” value is “synergistic effect”. The “TNF-α production by PBMCs” value in the data set on PBMCs is given as “not pro-inflammatory in isolation in vitro”; with PBMCs (listed as HMGB-1) it was “did not lead to TNF-α production”.

B5: rmHMGB1: exogenous alarmin rmHMGB1 added locally at the fracture site (protein, UniProt P63158 1-215, looked up)
High mobility group protein B1: B4 High mobility group protein B1 with E189D, D202E
Take B5: in the data set with tibial fracture [3], the “fracture healing / percentage callus mineralization” value is on record as “accelerates fracture; also recorded: improves callus mineralisation”.

B6: recombinant murine IL-10: an anti-inflammatory cytokine (protein, UniProt P18893 19-178, looked up)
Interleukin-10: SRGQYSREDNNCTHFPVGQSHMLLELRTAFSQVKTFFQTKDQLDNILLTDSLMQDFKGYLGCQALSEMIQFYLVEVMPQAEKHGPEIKEHLNSLGEKLKTLRMRLRRCHRFLPCENKSKAVEQVKSDFNKLQDQGVYKAMNEFDIFINCIEAYMMIKMKS
For B6, the “fracture healing as percentage mineralized callus volume” value with tibial fracture [2] (14 days post fracture, administered at fracture site) was “inhibition of fracture healing”.

The values are drawn from US20140056960A1, “Methods for Improving Fracture Healing and Bone Formation” (Imperial Innovations Limited, priority 2010, published 2014).
